How the values were obtained:
SHV-11 = molecular target: T1, SHV-11 (Klebsiella pneumoniae, UniProt P0AD64); assay: thermal denaturation with light scattering (aggregation) in presence of excess tazobactam; format: biochemical; settings: SHV-11, excess of tazobactam
T1 construct: DNA TEM (870 bp) or SHV (894 bp) were each sub-cloned into a PUC57 vector cloning site NdeI/XhoI; His-tag (N); TEV cleavage site (N); made in house; host or cells: E. coli BL21 (DE3)

[1] = tested on: TEM variants (TEM15, TEM30, TEM52, TEM10, TEM155); assay: aggregation (RALS temperature ramp) of recombinant TEM variants in presence and absence of tazobactam; format: biochemical; settings: presence versus absence of tazobactam
Description: FIGS. 2A-2M. (FIG. 2A) TEM mutations and their effects on stability (total energy) as predicted by FoldX. […] Dashed line indicates a total energy difference of 0.5 kcal/mol, the FoldX cut-off above which mutations are considered to be destabilizing. (FIG. 2B) Barplot mapping mutations in (FIG. 2A) to the TEM sequence and indicating occurrence. […] The bar heights correspond to the number of times a mutation occurs across different TEM variants (right-hand y-axis). The color coding is identical to that in (FIG. 2A). Red line indicates the TANGO scores (indicated on the left-hand y-axis), with peaks corresponding to APRs. (FIG. 2C) Mapping of mutations in (FIG. 2A) and (FIG. 2B) to the TEM structure (pdb 1xpb). Protein surface is shown in gray, color coding of mutations is identical to (FIG. 2A) and (FIG. 2B). (FIGS. 2D, 2E, and 2F) Temperature-dependent evolution of the Right-Angle Light Scattering (RALS) intensity during a temperature ramp, similar as in FIG. 1F for key mutants of TEM1, namely TEM-10 (FIG. 2D), TEM-30 (FIG. 2E) and TEM-155 (FIG. 2F). Experiments were shown in triplicate, single repeat is shown. (FIG. 2G) Schematic representation of the structure of the peptides. APR—Aggregation Prone Region, R—Arginine. (FIG. 2H) Ribbon representation of the superposition of the crystal structures of TEM (green, pdb id 1bt5) and SHV (blue, pdb id 1shv). […]

[2] = tested on: uro-pathogenic E. coli strain (UPEC strain blaTEM-1); assay: mouse Urinary Tract Infection (UTI) model; format: in vivo; settings: 30 mg/kg ampicillin plus 10 mg/kg test substance; 24 h
Protocol: FIGS. 4A-4K. […] IV—Intravenous, IP—Intraperitoneal, SC—Subcutaneously. The data shown is from a single experiment with 4 animals per group. […] (ns—non significant, #—P>0.05, *—P≤0.05, ***—P≤0.01, ****—P≤0.001). (FIG. 4G) FICI plot as in FIG. 2, for the E. coli strains indicated and the combination of penicillin and the TEM3.2 peptide. […] (FIG. 4J) Same as FIG. 4H for peptide BGAL. (FIG. 4K) Same as FIG. 4H for peptide P33.
Vehicle alone (0.9% NaCl) was also administered (IV).
To test the efficacy of the peptides, urinary tract infection model was performed as described previously^65. Briefly, female C57BL/6Jax mice female mice were deprived from water for at least one hour. […] Mice were slowly inoculated urethrally with 50 μL of a bacterial suspension slowly (10^8 CFU/mouse) using a sterile catheter (The plastic intravenous cannula of the paediatric intravenous-access cannula (GS391350) in the bladder over 5 s in order to avoid vesicoureteral reflux. The catheter was then removed directly after inoculation. After surgery, the animals were visually monitored for full recovery. After 1 h post-inoculation, all mice received ampicillin (30 mg/kg_PO-orally) and at the same time 3 groups of animals received the peptides via different administration routes (10mg/kg_IV—Intravenous; IP—Intraperitoneal or SC—sub-cutaneous) and the positive control groups received tazobactam (10 mg/Kg, PO). […]

E. coli strain UZ_TEM104 = format: cell-based; settings: additive at fixed 50 μg/mL
TEM-1 = molecular target: T2, TEM-1 (Escherichia coli, UniProt P62593); assay: thermal denaturation with right-angle/static light scattering (aggregation) in presence of beta-lactamase inhibitors; format: biochemical, E. coli
T2 construct: DNA TEM (870 bp) or SHV (894 bp) were each sub-cloned into a PUC57 vector cloning site NdeI/XhoI; His-tag (N); TEV cleavage site (N); made in house; host or cells: E. coli BL21 (DE3)
T2 sequence (P62593 24-286 limits assumed): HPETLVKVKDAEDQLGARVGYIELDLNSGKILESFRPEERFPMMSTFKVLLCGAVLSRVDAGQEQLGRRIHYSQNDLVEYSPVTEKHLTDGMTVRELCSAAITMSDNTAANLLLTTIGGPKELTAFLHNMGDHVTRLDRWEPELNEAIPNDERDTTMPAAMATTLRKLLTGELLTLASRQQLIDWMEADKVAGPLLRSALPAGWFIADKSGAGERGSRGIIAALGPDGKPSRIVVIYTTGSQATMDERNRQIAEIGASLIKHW
Description: (FIG. 1E) Heat denaturation of TEM-1 monitored by intrinsic fluorescence plotted as the BaryCentric Mean (BCM) of the fluorescence emission spectrum in the presence (red) and absence (blue) of tazobactam. […] (FIG. 1F) Temperature-dependent evolution of the Right-Angle Light Scattering (RALS) intensity measured simultaneously with the data in FIG. 1G to monitor protein aggregation. […] (FIGS. 1G, 1H, 1I, and 1J) Same data as in FIG. 1F, but showing a dose-titration of different beta-lactamase inhibitors: tazobactam (FIG. 1G), clavulanate (FIG. 1H), vaborbactam (FIG. 1I) and avibactam (FIG. 1J). Each curve a single experiment, which was repeated in triplicate.
Then, we performed a thermal denaturation whilst simultaneously monitoring the intrinsic fluorescence as a measure of the folding status of the molecule (FIG. 1E), and the static light scattering as a measure of aggregation (FIG. 1F).

T1 sequence (P0AD64 22-286 L31Q): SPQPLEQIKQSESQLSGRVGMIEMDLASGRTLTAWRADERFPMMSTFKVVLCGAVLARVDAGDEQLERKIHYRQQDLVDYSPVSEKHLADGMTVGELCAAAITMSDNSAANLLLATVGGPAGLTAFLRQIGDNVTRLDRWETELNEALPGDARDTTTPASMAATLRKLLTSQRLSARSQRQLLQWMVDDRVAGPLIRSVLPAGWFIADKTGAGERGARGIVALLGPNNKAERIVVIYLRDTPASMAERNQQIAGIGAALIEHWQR

C[C@]1(Cn2ccnn2)[C@H](C(=O)O)N2C(=O)C[C@H]2S1(=O)=O [tazobactam]
aggregation onset temperature Tagg (SHV-11): increase | effect of tazobactam on aggregation of TEM variants [1]: pharmacological chaperone effect | best reduction of the bacterial load (up to) [2]: 1.8 log folds | reduction of the MIC of penicillin G (E. coli strain UZ_TEM104): 4 fold | aggregation of the enzyme (static light scattering), dose-response (TEM-1; TEM-1, dose titration of inhibitor): reduce the aggregation of the enzyme in a dose-responsive manner | aggregation onset temperature Tagg (TEM-1; TEM-1, excess of tazobactam, more marked than for SHV-11): increase
